Test results published in patent publication US10899962B2, “Camera module, lubricant composition, and electronic device” (Samsung Electro-Mechanics Co., Ltd., priority 2018, dated 2021).

Assay: solubility of the fluorinated fluorescent material at varied concentrations (FIG. 8, FIG. 11)
Type: physicochemical
Conditions: concentrations shown 0.25 wt %, 0.5 wt %, and 1 wt %
Source text: More specifically, when using a compound represented by Chemical Formula 1, for example, a compound represented by Chemical Formula 1-1 for the fluorinated fluorescent material, the fluorinated fluorescent material is included, for example, in an amount from 0.1 wt % to less than 0.5 wt %, or even, for example, in an amount from 0.1 wt % to 0.3 wt %. This can be confirmed from FIG. 8 to FIG. 10. […] Referring to the drawings, it can be seen that solubility issues occur in concentrations of 0.5 wt % or higher. FIG. 9 and FIG. 10 show the fluorescence of a lubricant composition containing 0.25 wt % of a compound represented by Chemical Formula 1-1. […] From the drawings, it can be seen that the presence of the lubricant can be easily detected after application of the lubricant composition.
Furthermore, when using a compound represented by Chemical Formula 2, for example, a compound represented by Chemical Formula 2-1 for the fluorinated fluorescent material, the fluorinated fluorescent material is included, for example, in an amount from 0.01 wt % to less than 1.0 wt %, or even included, for example, in an amount from 0.03 wt % to 0.15 wt %. This can be confirmed from FIG. 11. […] Referring to the drawing, it can be seen that solubility issues occur in concentrations of 1.0 wt % or higher.

SMILES: CCN(CC)c1ccc2c(C)cc(=O)oc2c1 [Chemical Formula 1-1]
- concentrations in which solubility issues occur: ≥ 0.5 wt %
